Data as given in patent publication US12538924B2, “Pesticidally active heterocyclic derivatives with sulfur containing substituents” (SYNGENTA CROP PROTECTION AG, priority 2019, dated 2026).

Legend:
Type in all cases: in vivo
[1] = system: Diabrotica Balteata (Corn Root Worm); experiment: Diabrotica balteata (Corn Root Worm), sprayed maize sprouts; conditions: 96 h, application rate of 200 ppm, L2 larvae on sprayed maize sprouts, 4 days after infestation, read-out: effect in at least one of the two categories (mortality or growth inhibition)
Method: Example B2: Diabrotica Balteata (Corn Root Worm)
Maize sprouts placed onto an agar layer in 24-well microtiter plates were treated with aqueous test solutions prepared from 10'000 ppm DMSO stock solutions by spraying. After drying, the plates were infested with L2 larvae (6 to 10 per well). The samples were assessed for mortality and growth inhibition in comparison to untreated samples 4 days after infestation.

[2] = system: Plutella xylostella (Diamond Back Moth); experiment: Plutella xylostella (Diamond Back Moth), treated artificial diet; conditions: 192 h, application rate of 200 ppm, eggs on treated artificial diet, 8 days after infestation, read-out: effect in at least one of the two categories (mortality or growth inhibition)
Method: Example B5: Plutella xylostella (Diamond Back Moth)
24-well microtiter plates with artificial diet were treated with aqueous test solutions prepared from 10'000 ppm DMSO stock solutions by pipetting. After drying, Plutella eggs were pipetted through a plastic stencil onto a gel blotting paper and the plate was closed with it. The samples were assessed for mortality and growth inhibition in comparison to untreated samples 8 days after infestation.

[3] = system: Myzus persicae (Green Peach Aphid); experiment: Myzus persicae (Green Peach Aphid): Feeding/Contact Activity; conditions: foliar, 144 h, application rate of 200 ppm, aphid population of mixed ages on sprayed sunflower leaf discs, 6 days after infestation
Method: Example B6: Myzus persicae (Green Peach Aphid): Feeding/Contact Activity
Sunflower leaf discs were placed onto agar in a 24-well microtiter plate and sprayed with aqueous test solutions prepared from 10'000 ppm DMSO stock solutions. After drying, the leaf discs were infested with an aphid population of mixed ages. The samples were assessed for mortality 6 days after infestation.

[4] = system: Myzus persicae (Green Peach Aphid); experiment: Myzus persicae (Green Peach Aphid): Systemic Activity; conditions: 144 h, test rate of 24 ppm, roots of infested pea seedlings placed into test solutions, 6 days
Method: Example B7: Myzus persicae (Green Peach Aphid): Systemic Activity
Roots of pea seedlings infested with an aphid population of mixed ages were placed directly into aqueous test solutions prepared from 10'000 DMSO stock solutions. The samples were assessed for mortality 6 days after placing seedlings into test solutions.

[5] = system: Spodoptera littoralis (Egyptian Cotton Leaf Worm); experiment: Spodoptera littoralis (Egyptian Cotton Leaf Worm), sprayed cotton leaf discs; conditions: foliar, 72 h, application rate of 200 ppm, L1 larvae on sprayed cotton leaf discs, 3 days after infestation, read-out: control (mortality, anti-feeding effect or growth inhibition)
Method: Example B8: Spodoptera littoralis (Egyptian Cotton Leaf Worm)
Cotton leaf discs were placed onto agar in 24-well microtiter plates and sprayed with aqueous test solutions prepared from 10'000 ppm DMSO stock solutions. After drying the leaf discs were infested with five L1 larvae. The samples were assessed for mortality, anti-feeding effect, and growth inhibition in comparison to untreated samples 3 days after infestation. Control of Spodoptera littoralis by a test sample is given when at least one of the categories mortality, anti-feedant effect, and growth inhibition is higher than the untreated sample.

[6] = system: Euschistus heros (Neotropical Brown Stink Bug); experiment: Euschistus heros (Neotropical Brown Stink Bug), sprayed soybean leaves; conditions: 120 h, application rate of 200 ppm, N2 nymphs on sprayed soybean leaves, 5 days after infestation, read-out: effect in at least one of the two categories (mortality or growth inhibition)
Method: Example B3: Euschistus heros (Neotropical Brown Stink Bug)
Soybean leaves on agar in 24-well microtiter plates were sprayed with aqueous test solutions prepared from 10'000 ppm DMSO stock solutions. After drying the leaves were infested with N2 nymphs. The samples were assessed for mortality and growth inhibition in comparison to untreated samples 5 days after infestation.

[7] = system: Bemisia tabaci (Cotton White Fly); experiment: Bemisia tabaci (Cotton White Fly): Feeding/Contact Activity; conditions: foliar, 144 h, application rate of 200 ppm, adult white flies on sprayed cotton leaf discs, 6 days after incubation
Method: Example B1: Bemisia tabaci (Cotton White Fly): Feeding/Contact Activity
Cotton leaf discs were placed on agar in 24-well microtiter plates and sprayed with aqueous test solutions prepared from 10'000 ppm DMSO stock solutions. After drying the leaf discs were infested with adult white flies. The samples were checked for mortality 6 days after incubation.

CCS(=O)(=O)c1ccc(N2CCOC2=O)nc1N1Cc2cnc(C(F)(F)F)cc2C1=O [Compound P17, 3-[5-ethylsulfonyl-6-[1-oxo-6-(trifluoromethyl)-3H-pyrrolo[3,4-c]pyridin-2-yl]-2-pyridyl]oxazolidin-2-one]
≥ 80%: percent effect (mortality or growth inhibition) at 200 ppm [1] | percent effect (mortality or growth inhibition) at 200 ppm [2] | mortality at 200 ppm [3] | mortality at 24 ppm [4] | percent control (mortality, anti-feedant effect or growth inhibition) at 200 ppm [5]

CCS(=O)(=O)c1cc(C2CC2)cnc1N1Cc2cnc(C(F)(F)F)cc2C1=O [Compound P14, 2-(5-cyclopropyl-3-ethylsulfonyl-2-pyridyl)-6-(trifluoromethyl)-3H-pyrrolo[3,4-c]pyriclin-1-one]
≥ 80%: percent effect (mortality or growth inhibition) at 200 ppm [1] | percent effect (mortality or growth inhibition) at 200 ppm [6] | percent effect (mortality or growth inhibition) at 200 ppm [2] | mortality at 200 ppm [3] | mortality at 24 ppm [4] | percent control (mortality, anti-feedant effect or growth inhibition) at 200 ppm [5]

CCS(=O)(=O)c1cc(C(C)(C)C#N)cnc1N1Cc2ncc(C(F)(F)F)cc2C1=O [Compound P27, 2-[5-ethylsulfonyl-6-[5-oxo-3-(trifluoromethyl)-7H-pyrrolo[3,4-b]pyridin-6-yl]-3-pyridyl]-2-methyl-propanenitrile]
≥ 80%: mortality at 200 ppm [7] | percent effect (mortality or growth inhibition) at 200 ppm [1] | percent effect (mortality or growth inhibition) at 200 ppm [2] | mortality at 24 ppm [4] | percent control (mortality, anti-feedant effect or growth inhibition) at 200 ppm [5]

CCS(=O)(=O)c1cc(C2(C#N)CC2)cnc1N1Cc2ccc(OC(F)(F)F)cc2C1=O [Compound P25, 1-[5-ethylsulfonyl-6-[1-oxo-6-(trifluoromethoxy)isoindolin-2-yl]-3-pyridyl]cyclopropanecarbonitrile]
≥ 80%: mortality at 200 ppm [7] | percent effect (mortality or growth inhibition) at 200 ppm [1] | percent effect (mortality or growth inhibition) at 200 ppm [6] | percent effect (mortality or growth inhibition) at 200 ppm [2] | mortality at 200 ppm [3] | percent control (mortality, anti-feedant effect or growth inhibition) at 200 ppm [5]

CCS(=O)(=O)c1ccc(N(C)C(C)=O)nc1N1Cc2cnc(C(F)(F)F)cc2C1=O [Compound P20, N-[5-ethylsulfonyl-6-[1-oxo-6-(trifluoromethyl)-3H-pyrrolo[3,4-c]pyridin-2-yl]-2-pyridyl]-N-methyl-acetamide]
≥ 80%: percent effect (mortality or growth inhibition) at 200 ppm [1] | percent effect (mortality or growth inhibition) at 200 ppm [6] | percent effect (mortality or growth inhibition) at 200 ppm [2] | mortality at 200 ppm [3] | mortality at 24 ppm [4] | percent control (mortality, anti-feedant effect or growth inhibition) at 200 ppm [5]

CCS(=O)(=O)c1ccc(-c2ncccn2)nc1N1Cc2cnc(C(F)(F)F)cc2C1=O [Compound P16, 2-(3-ethylsulfonyl-6-pyrimidin-2-yl-2-pyridyl)-6-(trifluoromethyl)-3H-pyrrolo[3,4-c]pyriclin-1-one]
≥ 80%: percent effect (mortality or growth inhibition) at 200 ppm [1] | percent effect (mortality or growth inhibition) at 200 ppm [6] | percent effect (mortality or growth inhibition) at 200 ppm [2] | mortality at 200 ppm [3] | mortality at 24 ppm [4] | percent control (mortality, anti-feedant effect or growth inhibition) at 200 ppm [5]

CCS(=O)(=O)c1cccnc1N1Cc2ccc(S(=O)(=O)C(F)(F)F)cc2C1=O [Compound P23, 2-(3-ethylsulfonyl-2-pyridyl)-6-(trifluoromethylsulfonyl)isoindolin-1-one]
≥ 80%: mortality at 200 ppm [7] | percent effect (mortality or growth inhibition) at 200 ppm [1] | percent effect (mortality or growth inhibition) at 200 ppm [6] | percent effect (mortality or growth inhibition) at 200 ppm [2] | mortality at 200 ppm [3] | mortality at 24 ppm [4] | percent control (mortality, anti-feedant effect or growth inhibition) at 200 ppm [5]

CCS(=O)(=O)c1ccc(C2CC2)nc1N1Cc2cnc(C(F)(F)F)cc2C1=O [Compound P15, 2-(6-cyclopropyl-3-ethylsulfonyl-2-pyridyl)-6-(trifluoromethyl)-3H-pyrrolo[3,4-c]pyriclin-1-one]
≥ 80%: percent effect (mortality or growth inhibition) at 200 ppm [1] | percent effect (mortality or growth inhibition) at 200 ppm [6] | percent effect (mortality or growth inhibition) at 200 ppm [2] | mortality at 200 ppm [3] | mortality at 24 ppm [4] | percent control (mortality, anti-feedant effect or growth inhibition) at 200 ppm [5]

CCS(=O)(=O)c1cccnc1N1Cc2ccc(OC(F)(F)F)cc2C1=O [Compound P24, 2-(3-ethylsulfonyl-2-pyridyl)-6-(trifluoromethoxy)isoindolin-1-one]
≥ 80%: percent effect (mortality or growth inhibition) at 200 ppm [1] | percent effect (mortality or growth inhibition) at 200 ppm [2] | mortality at 200 ppm [3] | percent control (mortality, anti-feedant effect or growth inhibition) at 200 ppm [5]

CCS(=O)(=O)c1cccnc1N1Cc2ccc(C(F)(F)F)cc2C1=O [Compound P21, 2-(3-ethylsulfonyl-2-pyridyl)-6-(trifluoromethyl)isoindolin-1-one]
≥ 80%: mortality at 200 ppm [7] | percent effect (mortality or growth inhibition) at 200 ppm [1] | percent effect (mortality or growth inhibition) at 200 ppm [6] | percent effect (mortality or growth inhibition) at 200 ppm [2] | mortality at 200 ppm [3] | mortality at 24 ppm [4] | percent control (mortality, anti-feedant effect or growth inhibition) at 200 ppm [5]

CCS(=O)(=O)c1cc(C2(C#N)CC2)cnc1N1Cc2ccc(C(F)(F)F)cc2C1=O [Compound P26]
≥ 80%: mortality at 200 ppm [7] | percent effect (mortality or growth inhibition) at 200 ppm [1] | percent effect (mortality or growth inhibition) at 200 ppm [6] | percent effect (mortality or growth inhibition) at 200 ppm [2] | mortality at 200 ppm [3] | percent control (mortality, anti-feedant effect or growth inhibition) at 200 ppm [5]

CCS(=O)(=O)c1cccnc1N1Cc2ncc(C(F)(F)F)cc2C1=O [Compound P22, 6-(3-ethylsulfonyl-2-pyridyl)-3-(trifluoromethyl)-7H-pyrrolo[3,4-b]pyridin-5-one]
≥ 80%: percent effect (mortality or growth inhibition) at 200 ppm [1] | percent effect (mortality or growth inhibition) at 200 ppm [2] | mortality at 200 ppm [3] | mortality at 24 ppm [4] | percent control (mortality, anti-feedant effect or growth inhibition) at 200 ppm [5]

CCC(=O)N(C)c1ccc(S(=O)(=O)CC)c(N2Cc3cnc(C(F)(F)F)cc3C2=O)n1 [Compound P19, N-[5-ethylsulfonyl-6-[1-oxo-6-(trifluoromethyl)-3H-pyrrolo[3,4-c]pyridin-2-yl]-2-pyridyl]-N-methyl-propanamide]
≥ 80%: percent effect (mortality or growth inhibition) at 200 ppm [1] | percent effect (mortality or growth inhibition) at 200 ppm [6] | percent effect (mortality or growth inhibition) at 200 ppm [2] | mortality at 200 ppm [3] | mortality at 24 ppm [4] | percent control (mortality, anti-feedant effect or growth inhibition) at 200 ppm [5]

CCS(=O)(=O)c1cc(Br)cnc1N1Cc2cnc(C(F)(F)F)cc2C1=O [Compound P7, 2-(5-bromo-3-ethylsulfonyl-2-pyridyl)-6-(trifluoromethyl)-3H-pyrrolo[3,4-c]pyridin-1-one]
≥ 80%: mortality at 200 ppm [7] | percent effect (mortality or growth inhibition) at 200 ppm [1] | percent effect (mortality or growth inhibition) at 200 ppm [2] | mortality at 200 ppm [3] | percent control (mortality, anti-feedant effect or growth inhibition) at 200 ppm [5]
